Assay results from PubChem BioAssay (NCI).
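Cultured in 96-well plates, cells were exposed to test compound for 48 hours across five concentrations. TGI is the concentration that stops growth completely.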

How the values were obtained:
Test in all cases: DTP human tumour cell line panel, 48 h
A549 NSCLC = test system: A549 NSCLC
SW-620 colon = test system: SW-620 colon
HT29 colon = test system: HT29 colon
OVCAR-3 ovarian = test system: OVCAR-3 ovarian
SK-MEL-28 melanoma = test system: SK-MEL-28 melanoma
T-47D breast = test system: T-47D breast
HS 578T breast = test system: HS 578T breast
OVCAR-8 ovarian = test system: OVCAR-8 ovarian
M14 melanoma = test system: M14 melanoma
RPMI-8226 leukemia = test system: RPMI-8226 leukemia
NCI-H226 lung = test system: NCI-H226 lung
BT-549 breast = test system: BT-549 breast
786-0 renal = test system: 786-0 renal
MDA-MB-231 breast = test system: MDA-MB-231 breast
UACC-62 melanoma = test system: UACC-62 melanoma
SK-OV-3 ovarian = test system: SK-OV-3 ovarian
MDA-N = test system: MDA-N
OVCAR-4 ovarian = test system: OVCAR-4 ovarian
UACC-257 melanoma = test system: UACC-257 melanoma
MALME-3M melanoma = test system: MALME-3M melanoma
NCI-H23 lung = test system: NCI-H23 lung
K-562 leukemia = test system: K-562 leukemia
SNB-19 CNS = test system: SNB-19 CNS
MOLT-4 leukemia = test system: MOLT-4 leukemia
SK-MEL-5 melanoma = test system: SK-MEL-5 melanoma
SF-295 CNS = test system: SF-295 CNS
SF-268 CNS = test system: SF-268 CNS
U251 CNS = test system: U251 CNS
EKVX NSCLC = test system: EKVX NSCLC
SN12C renal = test system: SN12C renal
NCI-H522 lung = test system: NCI-H522 lung
TK-10 renal = test system: TK-10 renal
KM12 colon = test system: KM12 colon
HOP-62 NSCLC = test system: HOP-62 NSCLC
COLO 205 colon = test system: COLO 205 colon
HCT-116 colon = test system: HCT-116 colon
DU-145 prostate = test system: DU-145 prostate
CAKI-1 renal = test system: CAKI-1 renal
SNB-75 CNS = test system: SNB-75 CNS
IGROV1 ovarian = test system: IGROV1 ovarian
HCT-15 colon = test system: HCT-15 colon
NCI-H460 lung = test system: NCI-H460 lung
RXF 393 renal = test system: RXF 393 renal
NCI/ADR-RES ovarian = test system: NCI/ADR-RES ovarian
SK-MEL-2 melanoma = test system: SK-MEL-2 melanoma
A498 renal = test system: A498 renal
HOP-92 NSCLC = test system: HOP-92 NSCLC
MDA-MB-435 = test system: MDA-MB-435
SF-539 CNS = test system: SF-539 CNS
OVCAR-5 ovarian = test system: OVCAR-5 ovarian
ACHN renal = test system: ACHN renal
MCF7 breast = test system: MCF7 breast
PC-3 prostate = test system: PC-3 prostate
UO-31 renal = test system: UO-31 renal
HL-60(TB) leukemia = test system: HL-60(TB) leukemia
CCRF-CEM leukemia = test system: CCRF-CEM leukemia
HCC-2998 colon = test system: HCC-2998 colon
LOX IMVI melanoma = test system: LOX IMVI melanoma

## N#CCCSC(=S)C1CCCC1=N (stereo unspecified)
A549 NSCLC
  TGI: > 100 µM
SW-620 colon
  TGI: > 100 µM
HT29 colon
  TGI: > 100 µM
OVCAR-3 ovarian
  TGI: > 100 µM
SK-MEL-28 melanoma
  TGI: > 100 µM
T-47D breast
  TGI: > 100 µM
HS 578T breast
  TGI: > 100 µM
OVCAR-8 ovarian
  TGI: > 100 µM
M14 melanoma
  TGI: > 100 µM
RPMI-8226 leukemia
  TGI: > 100 µM
NCI-H226 lung
  TGI: > 100 µM
BT-549 breast
  TGI: > 100 µM
786-0 renal
  TGI: > 100 µM
MDA-MB-231 breast
  TGI: > 100 µM
UACC-62 melanoma
  TGI: > 100 µM
SK-OV-3 ovarian
  TGI: > 100 µM
MDA-N
  TGI: > 100 µM
OVCAR-4 ovarian
  TGI: > 100 µM
UACC-257 melanoma
  TGI: > 100 µM
MALME-3M melanoma
  TGI: > 100 µM
NCI-H23 lung
  TGI: > 100 µM
K-562 leukemia
  TGI: > 100 µM
SNB-19 CNS
  TGI: > 100 µM
MOLT-4 leukemia
  TGI: > 100 µM
SK-MEL-5 melanoma
  TGI: > 100 µM
SF-295 CNS
  TGI: > 100 µM
SF-268 CNS
  TGI: > 100 µM
U251 CNS
  TGI: > 100 µM
EKVX NSCLC
  TGI: > 100 µM
SN12C renal
  TGI: > 100 µM
NCI-H522 lung
  TGI: > 100 µM
TK-10 renal
  TGI: > 100 µM
KM12 colon
  TGI: > 100 µM
HOP-62 NSCLC
  TGI: > 100 µM
COLO 205 colon
  TGI: > 100 µM
HCT-116 colon
  TGI: > 100 µM
DU-145 prostate
  TGI: > 100 µM
CAKI-1 renal
  TGI: > 100 µM
SNB-75 CNS
  TGI: 94.4 µM
IGROV1 ovarian
  TGI: > 100 µM
HCT-15 colon
  TGI: > 100 µM
NCI-H460 lung
  TGI: > 100 µM
RXF 393 renal
  TGI: > 100 µM
NCI/ADR-RES ovarian
  TGI: > 100 µM
SK-MEL-2 melanoma
  TGI: > 100 µM
A498 renal
  TGI: > 100 µM
HOP-92 NSCLC
  TGI: > 100 µM
MDA-MB-435
  TGI: > 100 µM
SF-539 CNS
  TGI: > 100 µM
OVCAR-5 ovarian
  TGI: > 100 µM
ACHN renal
  TGI: > 100 µM
MCF7 breast
  TGI: > 100 µM
PC-3 prostate
  TGI: > 100 µM
UO-31 renal
  TGI: > 100 µM
HL-60(TB) leukemia
  TGI: > 100 µM

## CNS(=O)(=O)c1ccc2[nH]c(O)c(C3=Nc4ccccc4C3=O)c2c1
A549 NSCLC
  TGI: > 100 µM
SW-620 colon
  TGI: > 100 µM
HT29 colon
  TGI: > 100 µM
OVCAR-3 ovarian
  TGI: > 100 µM
SK-MEL-28 melanoma
  TGI: > 100 µM
T-47D breast
  TGI: > 100 µM
HS 578T breast
  TGI: > 100 µM
M14 melanoma
  TGI: > 100 µM
RPMI-8226 leukemia
  TGI: > 100 µM
NCI-H226 lung
  TGI: > 100 µM
BT-549 breast
  TGI: > 100 µM
MDA-MB-231 breast
  TGI: > 100 µM
UACC-62 melanoma
  TGI: > 100 µM
SK-OV-3 ovarian
  TGI: > 100 µM
MDA-N
  TGI: > 100 µM
UACC-257 melanoma
  TGI: > 100 µM
MALME-3M melanoma
  TGI: > 100 µM
NCI-H23 lung
  TGI: > 100 µM
K-562 leukemia
  TGI: > 100 µM
SNB-19 CNS
  TGI: > 100 µM
MOLT-4 leukemia
  TGI: > 100 µM
CCRF-CEM leukemia
  TGI: > 100 µM
SK-MEL-5 melanoma
  TGI: > 100 µM
SF-295 CNS
  TGI: > 100 µM
SF-268 CNS
  TGI: > 100 µM
U251 CNS
  TGI: 39.8 µM
EKVX NSCLC
  TGI: > 100 µM
SN12C renal
  TGI: > 100 µM
NCI-H522 lung
  TGI: > 100 µM
TK-10 renal
  TGI: > 100 µM
HOP-62 NSCLC
  TGI: > 100 µM
COLO 205 colon
  TGI: > 100 µM
HCC-2998 colon
  TGI: > 100 µM
HCT-116 colon
  TGI: > 100 µM
DU-145 prostate
  TGI: > 100 µM
CAKI-1 renal
  TGI: > 100 µM
SNB-75 CNS
  TGI: > 100 µM
IGROV1 ovarian
  TGI: > 100 µM
HCT-15 colon
  TGI: > 100 µM
NCI-H460 lung
  TGI: > 100 µM
RXF 393 renal
  TGI: > 100 µM
NCI/ADR-RES ovarian
  TGI: > 100 µM
SK-MEL-2 melanoma
  TGI: > 100 µM
A498 renal
  TGI: > 100 µM
MDA-MB-435
  TGI: > 100 µM
LOX IMVI melanoma
  TGI: > 100 µM
OVCAR-5 ovarian
  TGI: > 100 µM
ACHN renal
  TGI: > 100 µM
PC-3 prostate
  TGI: > 100 µM
UO-31 renal
  TGI: > 100 µM
HL-60(TB) leukemia
  TGI: > 100 µM
